Experimental data reported in paper PMC10707468, “Pharmacokinetics of Novel Dopamine Transporter Inhibitor CE-123 and Modafinil with a Focus on Central Nervous System Distribution” (International Journal of Molecular Sciences, 2023).
Read-outs that look alike come from different tables or passages of the source.

Experiment: NeuroPK parameters by Combinatory Mapping Approach
Format: in vivo
Settings: rat; for concentration at 4 h / Kp uu at 4 h: Sprague-Dawley, intravenous, 20 mg/kg; for concentration at 4 h: brain interstitial fluid, steady state, Equation (6), read-out: Unbound-drug concentration in brain interstitial fluid, Cu,brainISF; for Kp uu at 4 h: extent of BBB transport, Equation (4), read-out: Unbound brain-to-plasma concentration ratio, Kp,uu,brain; for Kp uu: brain slices (Vu,brain) and brain homogenate (fu,brain), Equation (5), Vu,brain·fu,brain, read-out: Unbound intracellular-to-extracellular (interstitial) concentration ratio, Kp,uu,cell; for Kp,uu at the blood–spinal cord barrier (BSCB): spinal-cord-to-plasma unbound ratio
Source text: The neuropharmacokinetic (neuroPK) parameters of the novel DAT inhibitor as well as modafinil have so been far assessed based on the total drug concentration in the plasma and the entire brain, usually at a single time point in a non-dedicated PK study. Yet, the total brain-to-plasma concentration ratio (Kp,brain) is just one of the neuroPK parameters with a limited use for characterization of the extent of BBB transport. According to the Free Drug Theory, the concentration of unbound (free) drugs, particularly at a site of action like the brain, governs the pharmacological effect(s), emphasizing the significance of unbound drug concentrations in distribution processes. To this end, the unbound brain-to-plasma concentration ratio, Kp,uu,brain, is the key neuroPK parameter to obtain for the assessment of the extent of BBB transport. With the Combinatory Mapping Approach (CMA), evaluation of the neuroPK parameters of unbound drugs can be obtained in a more high-throughput mode, which makes it useful for CNS drug discovery. The CMA employs several in vivo and in vitro methods to provide a comprehensive assessment of drug properties concerning BBB transport and intra-brain distribution. In an in vivo neuroPK study, the total concentrations of drugs in the brain and plasma are determined at the steady state, which is pivotal for assessing Kp,brain (Figure 1(A1)). In parallel, in vitro investigations involve the determination of unbound fractions of drugs in the plasma (fu,plasma) and brain tissue binding properties (fu,brain) using equilibrium dialysis and the brain slice method (Vu,brain) (Figure 1(B1,C1)). Finally, a combination of these acquired parameters enables the estimation of Kp,uu,brain and the unbound drug cell partitioning coefficient (Kp,uu,cell). Kp,uu,brain represents the ratio of brain interstitial fluid (ISF) to the plasma unbound drug concentrations at the steady state, providing a quantitative description of the net BBB drug transport. This parameter relies on three compound-specific parameters, Kp,brain, Vu,brain, and fu,plasma. […] Kp,uu,cell represents the steady-state ratio of intracellular to extracellular unbound drug concentrations, describing the drug transport across the cellular membrane.
The unbound brain-to-plasma concentration ratio, Kp,uu,brain, was calculated by using the three compound-specific parameters: Kp,brain, Vu,brain, and fu,plasma:(4) Kp,uu,brain=Kp,brain/Vu,brain·fu,plasma
The unbound intracellular-to-extracellular (interstitial) concentration ratio, Kp,uu,cell, was estimated by using the Vu,brain and fu,brain parameters:(5) Kp,uu,cell=Vu,brain·fu,brain
Due to the multiparameter character of Kp,uu,brain and Kp,uu,cell assessment (Equations (4) and (5)), the estimation of variability around the mean values was calculated using an error propagation method as described in Loryan et al. (2017).
The Kp,uu,brain values were further used to calculate the unbound drug concentration in the brain interstitial fluid Cu,brain,ISF, according to Loryan et al. (2014):(6) Cu,brain,ISF=Kp,uu,brain·Cu,plasma

SMILES	concentration at 4 h [nM]	Kp uu at 4 h (brain)	Kp uu at 4 h	Kp uu	Kp,uu at the blood–spinal cord barrier (BSCB)	fold difference in Kp,uu,brain, S-CE-123 vs R-modafinil
NC(=O)C[S@@+]([O-])C(c1ccccc1)c1ccccc1 [R-modafinil, reference compound]	282	0.1	0.097 ± 0.034	0.85 ± 0.6	dominating net active efflux	–
[O-][S@@+](Cc1cncs1)C(c1ccccc1)c1ccccc1 [S-CE-123]	386	0.5	0.46 ± 0.032	0.18 ± 0.09	closer to unity	ca. 5 fold
